In one experiment the test system is PC-3 cells. As to the kind of experiment: Cell viability analysis (MTT) in PC-3 cells. Format: cell-based, human. The conditions noted are these: Homo sapiens; inducing apoptotic death in PC-3 cells / PC-3 cell viability; read-out: IC50 PC-3. Here is the method: Cell Culture PC-3 (p53−/−) human androgen-nonresponsive prostate cancer cells were purchased from the American […] (Manassas, Va.). Cells were cultured in RPMI 1640 medium (Gibco, Grand Island, N.Y.) supplemented with 10% fetal bovine serum (FBS; Gibco) at 37° C. in a humidified incubator containing 5% CO2.
Cell viability analysis The effect of 4-[5-(4-methylphenyl)-3-(trifluoromethyl)-1H-pyrazol-1-yl]benzenesulfonamide and its derivatives on PC-3 cell viability was assessed by using the MTT {[3-(4,5-dimethylthiazol-2-yl)-2,5-diphenyl-2H-tetrazolium bromide]} assay in six replicates. Cells were grown in 10% FBS-supplemented RPMI 1640 medium in 96-well, flat bottomed plates for 24 h, and were exposed to various concentrations of compounds 1-36 dissolved in DMSO (final concentration ≦0.1%) in 1% serum-containing RPMI 1640 medium for different time intervals. Controls received DMSO vehicle at a concentration equal to that in drug-treated cells. The medium was removed, replaced by 200 μl of 0.5 mg/ml of MTT in 10% FBS-containing RPMI-1640 medium, and cells were incubated in the CO2 incubator at 37° C. for 2 h. Supernatants were removed from the wells, and the reduced MTT dye was solubilized in 200 μL/well DMSO. Absorbance at 570 nm was determined on a plate reader.

The target in the next experiment is T1, recombinant PDK-1 (Homo sapiens, UniProt O15530).
T1 construct: purchased Upstate (Lake Placid, N.Y.)
T1 sequence (O15530 1-556): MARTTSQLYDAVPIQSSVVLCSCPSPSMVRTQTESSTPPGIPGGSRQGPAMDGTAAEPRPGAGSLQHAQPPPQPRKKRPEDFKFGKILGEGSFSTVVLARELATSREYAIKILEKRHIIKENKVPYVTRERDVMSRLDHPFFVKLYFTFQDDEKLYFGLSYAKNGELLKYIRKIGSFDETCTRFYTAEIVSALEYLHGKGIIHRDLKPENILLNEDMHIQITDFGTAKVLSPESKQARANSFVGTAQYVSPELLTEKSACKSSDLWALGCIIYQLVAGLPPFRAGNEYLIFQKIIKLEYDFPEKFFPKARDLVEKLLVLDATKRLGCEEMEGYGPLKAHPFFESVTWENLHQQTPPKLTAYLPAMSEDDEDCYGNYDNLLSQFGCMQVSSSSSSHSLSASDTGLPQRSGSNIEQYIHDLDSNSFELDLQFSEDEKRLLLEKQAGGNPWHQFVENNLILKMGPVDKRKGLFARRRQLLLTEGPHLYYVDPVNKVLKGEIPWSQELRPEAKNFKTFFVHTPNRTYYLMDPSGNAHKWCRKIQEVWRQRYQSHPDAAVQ
As to the kind of experiment: PDK-1 kinase activity (Upstate kit, SGK-coupled, cell-free). The class given is biochemical. The settings on record: inhibiting recombinant PDK-1 kinase activity; read-out: IC50 PDK-1.

Procedure for recombinant PDK-1: PDK-1 kinase activity This in vitro assay was performed using a PDK-1 kinase assay kit (Upstate, Lake Placid, N.Y.) according to the vendor's instructions. This cell-free assay is based on the ability of recombinant PDK-1, in the presence of DMSO vehicle or the test agent, to activate its downstream kinase serum- and glucocorticoid-regulated kinase (SGK.) which, in turn, phosphorylates the Akt/SGK-specific peptide substrate RPRAATF with [γ-^32]-ATP. […] The reported values represent the means of two independent determinations.

For `NN=Cc1ccc(-n2nc(C(F)(F)F)cc2-c2ccc3c(ccc4ccccc43)c2)cc1` [Compound 66, 4-[5-(2-Phenanthrenyl)-3-(trifluoromethyl)-1H-pyrazol-1-yl]-benzaldehyde hydrazone], the IC50 with PC-3 cells was 10 µM; on recombinant PDK-1, 16 µM.
In the same order, the values of `N#CCc1ccc(-n2nc(C(F)(F)F)cc2-c2ccc3c(ccc4ccccc43)c2)cc1` [Compound 67, {4-[5-(2-Phenanthrenyl)-3-(trifluoromethyl)-1H-pyrazol-1-yl]-phenyl}-acetonitrile] are 25 µM and 42 µM.
As to `NC(=O)Nc1ccc(-n2nc(C(F)(F)F)cc2-c2ccc3c(ccc4ccccc43)c2)cc1` [Compound 72, 4-[5-(2-Phenanthrenyl)-3-(trifluoromethyl)-1H-pyrazol-1-yl]phenyl urea], the IC50 in the experiment on PC-3 cells worked out at 24 µM; at recombinant PDK-1, 40 µM.

For the origin of these results see patent US20060079566A1, “PDK-1/Akt signaling inhibitors” (priority 2003, published 2006).
